Results taken from patent US20050239152A1, “Continuous-flow enzyme assay” (Kiadis B.V., priority 2002, published 2005).

What was measured:
[1] = biological target: T1, Cathepsin B (E.C. 3.4.22.1, from bovine spleen) (Bos taurus, UniProt P07688); settings: FI-CF system, FIG. 7; antipain compared with E64
Method: The enzymatic assay was performed in a continuous-flow ESI-TOF-MS system where the enzyme cathepsin B and the substrate Z-FR-AMC were subsequently added to the carrier solution of a flow injection system simulating the effluent of an LC column. As a consequence, cathepsin B was continuously incubated with Z-FR-AMC, resulting in a continuous supply of converted substrate. The product was pumped into the mass spectrometer and monitored. Various compounds were injected into the continuous-flow system, incubated with the enzyme in a reaction coil and subsequently pumped into the mass spectrometer. […]
More in detail, samples were analyzed by two different continuous-flow (CF) systems, which both consisted of a homogeneous bioassay coupled to a Micromass (Wythenshawe, UK) Q-Tof micro mass spectrometer. […] The amount of formed product was determined by MS, which was equipped with a Micromass Z-spray electrospray ionization (ESI) source. […]
Carrier solution (20 μL/min) was mixed continuously with cathepsin B solution (10 μL/min) in reaction coil A for 40 sec, and carrier/cathepsin B solution with Z-FR-AMC solution (30 μL/min) in reaction coil B for 45 sec. The resulting flow (40 μL/min) coming out of reaction coil B was pumped into the mass spectrometer, where the amount of formed product was directly monitored by ESI-TOF-MS. […]

[2] = biological target: T1, Cathepsin B (E.C. 3.4.22.1, from bovine spleen); experiment: LC-continuous-flow (LC-CF) ESI-TOF-MS cathepsin B assay, substrate Z-FR-AMC; settings: LC-CF system, FIG. 8; mixture injected, E64 40 μM, CA-074 90 μM
Method: For the HPLC screening, solutions were prepared as described herein-above and filled in superloops. Used concentrations were 30 nM cathepsin B and 6 μM internal standard 1, and 50 μM Z-FR-AMC and 6 μM internal standard 2, for superloop 1 and superloop 2, respectively. Injected inhibitors: E64 and CA074, which were in mixture injected (E64: 40 μM; CA-074: 90 μM). […] Compounds injected via an autoinjector were separated by the LC-column, using a binary gradient system consisting of carrier solution and methanol. In order to reduce the amount of methanol that was necessary for separation, a makeup solution was added to the column effluent, resulting in a constant methanol concentration of 10%. Decreasing the concentration of methanol was necessary to prevent enzyme degradation. […] In the LC-CF system, both the enzyme solution and the substrate solution were delivered at a flow rate of 50 μL/min, resulting in a total flow rate of 100 μL/min into the mass spectrometer.
The RP-separation was performed by a binary gradient system, using water and methanol. The organic modifier, however, decreases the activity of enzymes. For this reason, a makeup flow was added after the LC-column (see FIG. 5) to reduce the concentration of methanol. […] This flow was used as the carrier solvent that was pumped into the continuous-flow system. […]

For CC(C)C[C@H](NC(=O)[C@H]1O[C@@H]1C(=O)O)C(=O)NCCCCN=C(N)N (relative stereo) [E64, trans-epoxysuccinyl-L-leucylamido-(4-guanidino)butane], the “injected concentration giving more or less the same area of negative peaks” value [1] was 0.50 µM and the “negative peak in product mass trace after LC separation” value [2] was “caused by inhibition”.
